Two molecules from patent US5409949A, “Methylen-oxindole derivatives compositions and tyrosine kinase inhibition therewith” (Farmitalia Carlo Erba S.r.l., priority 1991, dated 1995) can be followed below.

Assay [1] deals with v-abl kinase. As to the kind of experiment: Myelin Basic Protein phosphorylation assay. It is filed as biochemical. The settings on record: myelin basic protein 56 μM as substrate, 10 μM cold ATP, pH 8.0, 22° C. As to the method:
(§1) The tyrosine specific protein kinase activity of these compounds is shown by the in vitro tests described herebelow.
(§2) The enzyme used in the Abelson tyrosine kinase p95^v-ab which was produced and isolated as follows: 1 Liter cultures of HB-130 cells in LB medium, supplemented with ampicillin, were grown at 30° C. as described by Wang et al. in J. Biol. Chem. 260, 64 (1985). The expression of v-abl protein was induced by shifting the temperature to 42° C. for 3-4 h. The bacterial cells were collected on ice, centrifuged and frozen in liquid nitrogen. The cell pellet was lysed as described by Ferguson et al. in J. Biol. Chem. 260, 3652 (1985) and in Biochem. J. 257, 321 (1989). Briefly, bacterial proteins were removed by differential solubilization with sodium deoxycholate, NaCl and β-octylglucopyranoside in different steps. Insoluble v-abl protein was solubilized with 2M KSCN and dialyzed against 100 volumes of 50 mM Tris-HCl, pH 7.5, 1 mM EDTA and 0.1 mM dithiothreitol (buffer A). The soluble proteins were separated by chromatography on a prepacked Mono-Q anion exchange column in a f.p.l.c. system. […]
The in vitro test with Myelin Basic Protein as substrate was carried out as follows: Protein phosphorylation was performed by incubating 40 ng of purified v-abl kinase, 1.5 μCi […] Bands were located by autoradiography, excised from gel and counted in a liquid scintillation counter.

For assay [2], the target named is v-abl kinase. As to the kind of experiment: Autophosphorylation assay (v-abl kinase). Type of assay: biochemical. The note with it: immunoprecipitated v-abl kinase, 10 μM ATP, 15 min, room temperature. As to the method: as §1
as §2, with “A).” for “A). The soluble proteins were separated by chromatography on a prepacked Mono-Q anion exchange column in a f.p.l.c. system.”
For the autophosphorylation assay the v-abl kinase was immunoprecipitated with antiphosphotyrosine antibodies and the resulting immunocomplex analyzed in 50 μl of kinase buffer in the presence of 10 μM ATP and 10 μCi […]. […] Bands were located by autoradiography, excised and counted as above. […]

For orientation: IC50 means the concentration that inhibits the measured activity by half. For the molecule `O=C1Nc2ccccc2C1=Cc1c[nH]c2ccccc12` [3-[(3'-indolyl)methylen]-2-oxindole], the IC50 is 0.6 µM in assay [1] and 10 µM in assay [2].
On to `O=C1Nc2ccc(O)cc2C1=Cc1c[nH]c2ccccc12` [5-Hydroxy-3-[(3'-indolyl)methylene]-2-oxindole], for which the IC50 in assay [1] and in assay [2] was 0.4 µM throughout.
